Measurements as given in US20170095504A1, “Inhibitors of Kidney Stone Formation and Calcium Deposition” (priority 2015, published 2017).

Columns and labels:
[1] = Effect of inhibitors on crystal morphology (COM/COD/COT); details: 100 mg/L; 1 hr after start of reaction; control yields COM
[2] = Calcium binding (free Ca in solution before oxalate addition); format: physicochemical; details: inhibitor 100 mg/L; ~1.0 mM if no Ca binding occurs; control 1.02 mM
Experimental: Calcium binding was determined before oxalate addition. Crystals were obtained after the end of the kinetic experiments (1 hour), filtered, dried and tested by FTIR. The major polymorph was reported; other phases may be present but their peaks were not distinguishable in IR. Initial calcium and oxalate concentrations was the same, approximately 1 mM in pH buffered medium containing 10 mM HEPES and 150 mM NaCl. […] The data are Ca recordings obtained from solutions containing the inhibitor (100 mg/L) and calcium. The Ca ion concentration should be ˜1.0 mM if no Ca binding occurs. This could be related to the type of adsorption on the crystals as reported in a later section. Some of our proposed KSIs are showing significant Ca binding activity, and these are likely to be the best candidates as inhibitors.

What does the source list for `O=C(O)CN(CCN(CC(=O)O)CC(=O)O)CCN(CC(=O)O)CC(=O)O` [DTPA, diethylenetriaminepentaacetic acid]?
crystal phase obtained (COM, COD or COT) [1]: COT; Ca2+ concentration in the presence of inhibitors at 100 mg/L (PPM) [2]: 0.71 mM
